Reference: BigSolDB 2.1

Cc1cc(Cl)ccc1OCC(=O)O
solubility (mole fraction)
Settings	278.15 K	283.15 K	288.15 K	293.15 K	298.15 K	303.15 K	308.15 K	313.15 K	318.15 K	323.15 K
in acetone	0.158	0.171	0.188	0.201	0.22	0.239	0.258	0.281	0.301	0.32
in acetonitrile	0.0254	0.0342	0.0458	0.0607	0.0789	0.0968	0.128	0.159	0.196	0.248
in ethanol	0.125	0.151	0.184	0.235	0.3	0.352	0.424	0.497	0.561	0.661
in ethyl acetate	0.101	0.104	0.116	0.127	0.146	0.17	0.192	0.221	0.25	0.299
in ethyl formate	0.0572	0.0618	0.0699	0.0798	0.0914	0.107	0.123	0.14	0.164	0.204
in isobutanol	0.0895	0.111	0.139	0.17	0.214	0.265	0.332	0.39	0.454	0.558
in isopropanol	0.123	0.134	0.154	0.175	0.2	0.237	0.27	0.314	0.364	0.428
in methyl acetate	0.0958	0.106	0.12	0.134	0.149	0.17	0.2	0.234	0.271	0.318
in n-butyl acetate	0.0915	0.0974	0.106	0.122	0.139	0.162	0.185	0.209	0.247	0.296
in n-propanol	0.127	0.138	0.159	0.197	0.238	0.279	0.342	0.405	0.46	0.54
in n-propyl acetate	0.0958	0.103	0.112	0.127	0.144	0.161	0.182	0.211	0.243	0.297
in toluene	0.00841	0.00904	0.011	0.0136	0.0172	0.0214	0.0274	0.0331	0.0419	0.0515
